The source of these data is article PMC6217055 (Theranostics, 2018).

Experiment [1] relates to six solid tumour cell lines. In words: CCK-8 cytotoxicity, summary over six cell lines. It counts as cell-based. Conditions: read-out: IC50 values in these cell lines.
Experiment [2] has as its system MDA-MB-468, MDA-MB-231, SK-OV-3 and OVCAR-5 cells. Briefly: cell cycle assay. To be noted: 48 h, quarter, half of IC50 and IC50. It counts as cell-based, human.
In another experiment the test system is 4T1-Fluc tumour. In words: 4T1-Fluc BALB/c homograft mouse model. The class given is in vivo. To be noted: daily oral; vorinostat, abemaciclib 60 mg/kg.

pIC50: −log10 of the molar value.

Broadly, the pIC50 is −log10 of the IC50, conventionally taken in molar units. Regarding `CCN1CCN(Cc2ccc(Nc3ncc(F)c(-c4cc(F)c5nc(C)n(C(C)C)c5c4)n3)nc2)CC1` [Abemaciclib], the pIC50 in experiment [1] was below 6.00. Further, the “cell cycle distribution (G1-phase arrest)” value in experiment [2] was “did not induce G1 to S phase arrest”. For the same compound, in the experiment with 4T1-Fluc tumour, the tumour volume entry is on record as “decreased only slightly”.

Take `O=C(CCCCCCC(=O)Nc1ccccc1)NO` [Vorinostat]: in experiment [2], the “cell cycle distribution (G1-phase arrest)” value is “did not induce G1 to S phase arrest”. In the experiment on 4T1-Fluc tumour, the tumour volume result is reported as “barely impacted”.
